# Data taken from PubChem BioAssay (NCI).
#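 1) Cells in 96-well plates. 2) Compound, 48 h, 5 concentrations. 3) Linear interpolation between surrounding doses. 4) Unreached endpoint = highest concentration. GI50: concentration for 50% inhibition of growth. TGI denotes the concentration required for complete inhibition of growth.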
# What was measured:
# Assay in all cases: NCI tumour cell line growth inhibition, 48 h
# 786-0 renal = system: 786-0 renal
# A498 renal = system: A498 renal
# A549 NSCLC = system: A549 NSCLC
# ACHN renal = system: ACHN renal
# BT-549 breast = system: BT-549 breast
# CAKI-1 renal = system: CAKI-1 renal
# CCRF-CEM leukemia = system: CCRF-CEM leukemia
# COLO 205 colon = system: COLO 205 colon
# DU-145 prostate = system: DU-145 prostate
# EKVX NSCLC = system: EKVX NSCLC
# HCC-2998 colon = system: HCC-2998 colon
# HCT-116 colon = system: HCT-116 colon
# HCT-15 colon = system: HCT-15 colon
# HL-60(TB) leukemia = system: HL-60(TB) leukemia
# HOP-62 NSCLC = system: HOP-62 NSCLC
# HOP-92 NSCLC = system: HOP-92 NSCLC
# HS 578T breast = system: HS 578T breast
# HT29 colon = system: HT29 colon
# IGROV1 ovarian = system: IGROV1 ovarian
# K-562 leukemia = system: K-562 leukemia
# KM12 colon = system: KM12 colon
# M14 melanoma = system: M14 melanoma
# MALME-3M melanoma = system: MALME-3M melanoma
# MCF7 breast = system: MCF7 breast
# MDA-MB-231 breast = system: MDA-MB-231 breast
# MDA-MB-435 = system: MDA-MB-435
# MOLT-4 leukemia = system: MOLT-4 leukemia
# NCI-H226 lung = system: NCI-H226 lung
# NCI-H23 lung = system: NCI-H23 lung
# NCI-H460 lung = system: NCI-H460 lung
# NCI-H522 lung = system: NCI-H522 lung
# NCI/ADR-RES ovarian = system: NCI/ADR-RES ovarian
# OVCAR-4 ovarian = system: OVCAR-4 ovarian
# OVCAR-5 ovarian = system: OVCAR-5 ovarian
# OVCAR-8 ovarian = system: OVCAR-8 ovarian
# PC-3 prostate = system: PC-3 prostate
# RPMI-8226 leukemia = system: RPMI-8226 leukemia
# RXF 393 renal = system: RXF 393 renal
# SF-268 CNS = system: SF-268 CNS
# SF-539 CNS = system: SF-539 CNS
# SK-MEL-2 melanoma = system: SK-MEL-2 melanoma
# SK-MEL-28 melanoma = system: SK-MEL-28 melanoma
# SK-MEL-5 melanoma = system: SK-MEL-5 melanoma
# SK-OV-3 ovarian = system: SK-OV-3 ovarian
# SN12C renal = system: SN12C renal
# SNB-19 CNS = system: SNB-19 CNS
# SNB-75 CNS = system: SNB-75 CNS
# SR leukemia = system: SR leukemia
# SW-620 colon = system: SW-620 colon
# T-47D breast = system: T-47D breast
# TK-10 renal = system: TK-10 renal
# U251 CNS = system: U251 CNS
# UACC-257 melanoma = system: UACC-257 melanoma
# UACC-62 melanoma = system: UACC-62 melanoma
# UO-31 renal = system: UO-31 renal
smiles,measurement,setting,value
C#C[C@]1(O)CC[C@H]2[C@@H]3CC=C4c5sc(Nc6cc(Cl)ccn6)nc5CC[C@]4(C)[C@H]3CC[C@@]21C,GI50,786-0 renal,227 nM
same,TGI,786-0 renal,594 nM
same,GI50,A498 renal,828 nM
same,TGI,A498 renal,2280 nM
same,GI50,A549 NSCLC,1180 nM
same,TGI,A549 NSCLC,2610 nM
same,GI50,ACHN renal,834 nM
same,GI50,BT-549 breast,627 nM
same,TGI,BT-549 breast,2360 nM
same,GI50,CAKI-1 renal,725 nM
same,TGI,CAKI-1 renal,2200 nM
same,GI50,CCRF-CEM leukemia,463 nM
same,TGI,CCRF-CEM leukemia,> 22500 nM
same,GI50,COLO 205 colon,1660 nM
same,TGI,COLO 205 colon,3420 nM
same,GI50,DU-145 prostate,2530 nM
same,TGI,DU-145 prostate,> 100000 nM
same,GI50,EKVX NSCLC,1080 nM
same,TGI,EKVX NSCLC,4790 nM
same,GI50,HCC-2998 colon,2190 nM
same,TGI,HCC-2998 colon,5520 nM
same,GI50,HCT-116 colon,784 nM
same,TGI,HCT-116 colon,2350 nM
same,GI50,HCT-15 colon,1010 nM
same,TGI,HCT-15 colon,4880 nM
same,GI50,HL-60(TB) leukemia,402 nM
same,TGI,HL-60(TB) leukemia,2070 nM
same,GI50,HOP-62 NSCLC,759 nM
same,TGI,HOP-62 NSCLC,2670 nM
same,GI50,HOP-92 NSCLC,1530 nM
same,TGI,HOP-92 NSCLC,3370 nM
same,GI50,HS 578T breast,278 nM
same,TGI,HS 578T breast,1170 nM
same,GI50,HT29 colon,1420 nM
same,TGI,HT29 colon,3150 nM
same,GI50,IGROV1 ovarian,1780 nM
same,TGI,IGROV1 ovarian,> 21200 nM
same,GI50,K-562 leukemia,366 nM
same,TGI,K-562 leukemia,2450 nM
same,GI50,KM12 colon,1630 nM
same,TGI,KM12 colon,8590 nM
same,GI50,M14 melanoma,736 nM
same,TGI,M14 melanoma,2270 nM
same,GI50,MALME-3M melanoma,663 nM
same,TGI,MALME-3M melanoma,2100 nM
same,GI50,MCF7 breast,516 nM
same,TGI,MCF7 breast,3430 nM
same,GI50,MDA-MB-231 breast,1580 nM
same,TGI,MDA-MB-231 breast,4610 nM
same,GI50,MDA-MB-435,1060 nM
same,TGI,MDA-MB-435,3090 nM
same,GI50,MOLT-4 leukemia,321 nM
same,TGI,MOLT-4 leukemia,1950 nM
same,GI50,NCI-H226 lung,2140 nM
same,TGI,NCI-H226 lung,9840 nM
same,GI50,NCI-H23 lung,1350 nM
same,TGI,NCI-H23 lung,4710 nM
same,GI50,NCI-H460 lung,922 nM
same,TGI,NCI-H460 lung,2670 nM
same,GI50,NCI-H522 lung,1830 nM
same,TGI,NCI-H522 lung,4080 nM
same,GI50,NCI/ADR-RES ovarian,1950 nM
same,TGI,NCI/ADR-RES ovarian,6650 nM
same,GI50,OVCAR-4 ovarian,2800 nM
same,TGI,OVCAR-4 ovarian,> 26200 nM
same,GI50,OVCAR-5 ovarian,2140 nM
same,TGI,OVCAR-5 ovarian,> 20400 nM
same,GI50,OVCAR-8 ovarian,1400 nM
same,TGI,OVCAR-8 ovarian,3190 nM
same,GI50,PC-3 prostate,386 nM
same,TGI,PC-3 prostate,3640 nM
same,GI50,RPMI-8226 leukemia,212 nM
same,TGI,RPMI-8226 leukemia,749 nM
same,GI50,RXF 393 renal,124 nM
same,TGI,RXF 393 renal,380 nM
same,GI50,SF-268 CNS,1450 nM
same,TGI,SF-268 CNS,4550 nM
same,GI50,SF-539 CNS,214 nM
same,TGI,SF-539 CNS,741 nM
same,GI50,SK-MEL-2 melanoma,1430 nM
same,TGI,SK-MEL-2 melanoma,3950 nM
same,GI50,SK-MEL-28 melanoma,317 nM
same,TGI,SK-MEL-28 melanoma,1100 nM
same,GI50,SK-MEL-5 melanoma,1740 nM
same,TGI,SK-MEL-5 melanoma,3320 nM
same,GI50,SK-OV-3 ovarian,663 nM
same,TGI,SK-OV-3 ovarian,2170 nM
same,GI50,SN12C renal,3360 nM
same,TGI,SN12C renal,> 100000 nM
same,GI50,SNB-19 CNS,1230 nM
same,GI50,SNB-75 CNS,637 nM
same,GI50,SR leukemia,308 nM
same,TGI,SR leukemia,1380 nM
same,GI50,SW-620 colon,1090 nM
same,TGI,SW-620 colon,2680 nM
same,GI50,T-47D breast,2440 nM
same,TGI,T-47D breast,> 26300 nM
same,GI50,TK-10 renal,2210 nM
same,TGI,TK-10 renal,11400 nM
same,GI50,U251 CNS,425 nM
same,TGI,U251 CNS,1670 nM
same,GI50,UACC-257 melanoma,727 nM
same,TGI,UACC-257 melanoma,2200 nM
same,GI50,UACC-62 melanoma,846 nM
same,TGI,UACC-62 melanoma,3900 nM
same,GI50,UO-31 renal,383 nM
same,TGI,UO-31 renal,1610 nM
